We go through five molecules from US10676462B2, “Quinoline derivative” (ONO PHARMACEUTICAL CO., LTD., priority 2013, dated 2020).

In general, IC50 refers to the concentration that inhibits the measured activity by half. Low readings indicate greater potency in that assay, high ones weaker potency in that assay.

The target in one experiment is T1, Ba/F3 Axl (Homo sapiens, UniProt P30530).
T1 sequence (P30530 1-894): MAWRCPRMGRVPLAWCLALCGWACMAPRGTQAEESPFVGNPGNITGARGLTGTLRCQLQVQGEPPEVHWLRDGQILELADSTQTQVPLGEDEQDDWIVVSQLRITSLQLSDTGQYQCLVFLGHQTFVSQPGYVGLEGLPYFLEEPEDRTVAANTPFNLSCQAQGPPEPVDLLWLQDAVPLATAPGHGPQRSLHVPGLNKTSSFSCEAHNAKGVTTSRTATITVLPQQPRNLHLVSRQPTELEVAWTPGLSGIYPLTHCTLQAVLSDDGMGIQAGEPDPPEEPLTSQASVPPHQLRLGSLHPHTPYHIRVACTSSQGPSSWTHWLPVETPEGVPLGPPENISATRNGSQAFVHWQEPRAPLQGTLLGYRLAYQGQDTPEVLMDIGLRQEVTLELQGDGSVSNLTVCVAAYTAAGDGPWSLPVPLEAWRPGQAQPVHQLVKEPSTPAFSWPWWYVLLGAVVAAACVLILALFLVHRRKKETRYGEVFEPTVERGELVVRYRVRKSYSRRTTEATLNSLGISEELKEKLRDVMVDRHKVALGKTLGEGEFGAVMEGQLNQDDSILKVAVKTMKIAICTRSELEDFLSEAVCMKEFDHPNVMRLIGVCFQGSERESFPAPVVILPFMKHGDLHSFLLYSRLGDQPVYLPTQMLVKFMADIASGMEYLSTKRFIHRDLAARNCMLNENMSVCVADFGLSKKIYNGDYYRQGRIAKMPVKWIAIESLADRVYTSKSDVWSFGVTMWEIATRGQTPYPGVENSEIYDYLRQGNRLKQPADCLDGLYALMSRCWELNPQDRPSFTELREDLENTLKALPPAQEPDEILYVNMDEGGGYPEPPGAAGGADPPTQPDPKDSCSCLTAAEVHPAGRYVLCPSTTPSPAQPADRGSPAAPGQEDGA
As to the kind of experiment: Proliferation suppression rate using mouse pro-B cell line (Ba/F3 Axl) stably expressing Axl. In kind it is cell-based. To be noted: Ba/F3 Axl cells, 48 hours, CellTiter-Glo; read-out: IC50 value, proliferation suppression of Ba/F3 Axl. Here is the method: Biological Example 2: Measurement of Proliferation Suppression Rate by Using Mouse Pro-B Cell Line (Ba/F3 Axl) Stably Expressing Axl
A 0.1 mmol/L DMSO solution of the test compound was dispensed into a 96-well plate, and a 3-fold dilution series was prepared using DMSO. DMSO solutions of test compounds, having various concentrations, were further 500-fold diluted with a RPMI1640 medium (containing 10% HI-FBS, 1% penicillin) and a diluted solution of the test compound having […] with respect to the final concentration was prepared. In each well of the 96-well plate (BD Biosciences) for measurement, 50 μL of a RPMI medium was added to the Blank group, 50 μL of a RPMI medium containing 0.2% DMSO was added to the medium group, and 50 μL of the diluted solution of the test compound was added to the test compound group, respectively. Ba/F3 Axl was diluted with a medium to have a density of 2×10^5 cells/mL to prepare a cell suspension. In each well of the 96-well plate for measurement, 50 μL each of the RPMI medium was added to the Blank group, and 50 μL each of the cell suspension to the medium group and the test compound group, respectively, and the groups were stood still at 37° C. at 5% CO2 for 48 hours. After standing still, Relative Light Unit (RLU) was measured by using CELLTITER-GLO (registered trademark) LUMINESCENT CELL VIABILITY ASSAY (Promega). The measurement was carried out according to the attached instruction. To each well, 100 μL each of light-emitting solution was added. The plate was stirred at room temperature for 3 min and then stool still at room temperature with light shielded for 10 min, and RLU was measured by using Microplate Reader (SpectraMax M5e, Molecular Devices). The average values of RLU of the Blank group and the medium group were respectively calculated, and the proliferation suppression rate of the test compound group was calculated. Proliferation suppression rate (%)={1−(RLU of test compound group−A)/(B−A)}×100 [Math. 2] A: average value of RLU of Blank group B: average value of RLU of medium group
A value of 50% inhibition rate (IC50 value) of the test compound was calculated from the inhibition curve based on the inhibition rate in each concentration of the test compound.
A general note: ATP-based viability assays read luminescence as a measure of living cells.

Another experiment deals with T2, Axl enzyme (Homo sapiens, UniProt P30530).
T2 construct: a solution containing 400 ng/mL Axl enzyme was prepared
T2 sequence (P30530 26-894): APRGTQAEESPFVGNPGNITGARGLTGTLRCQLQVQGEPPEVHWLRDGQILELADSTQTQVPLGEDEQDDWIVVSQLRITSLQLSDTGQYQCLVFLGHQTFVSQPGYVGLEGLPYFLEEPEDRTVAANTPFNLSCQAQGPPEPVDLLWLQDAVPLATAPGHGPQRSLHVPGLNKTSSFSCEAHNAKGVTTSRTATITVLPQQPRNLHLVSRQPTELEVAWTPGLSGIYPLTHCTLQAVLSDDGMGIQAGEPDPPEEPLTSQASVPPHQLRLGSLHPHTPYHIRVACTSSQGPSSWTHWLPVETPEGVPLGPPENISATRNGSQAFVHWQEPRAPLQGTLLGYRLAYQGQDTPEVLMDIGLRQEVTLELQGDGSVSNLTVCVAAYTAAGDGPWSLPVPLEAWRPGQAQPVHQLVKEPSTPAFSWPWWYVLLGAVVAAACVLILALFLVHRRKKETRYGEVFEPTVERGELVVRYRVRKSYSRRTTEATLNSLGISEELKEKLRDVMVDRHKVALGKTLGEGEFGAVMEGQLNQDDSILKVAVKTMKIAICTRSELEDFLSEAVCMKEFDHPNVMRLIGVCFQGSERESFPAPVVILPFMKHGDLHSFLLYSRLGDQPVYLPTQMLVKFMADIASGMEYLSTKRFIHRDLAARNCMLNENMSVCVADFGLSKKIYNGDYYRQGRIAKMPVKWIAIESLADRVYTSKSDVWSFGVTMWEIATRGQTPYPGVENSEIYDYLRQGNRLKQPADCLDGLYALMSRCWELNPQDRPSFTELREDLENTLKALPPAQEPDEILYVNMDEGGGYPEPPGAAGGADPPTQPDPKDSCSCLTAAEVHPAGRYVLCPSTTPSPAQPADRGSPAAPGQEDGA
In words: Measurement of an Axl inhibitory activity (LanthaScreen TR-FRET, in vitro test). The class given is biochemical. Here is the method: Biological Example 1: Measurement of an Axl Inhibitory Activity (In Vitro Test)
An Axl enzyme inhibitory activity was measured by using LanthaScreen (registered trademark) system (Invitrogen) based on the attached instruction. The reagents used are shown below.
Reaction buffer solution: a solution containing 50 mmol/L HEPES (pH7.5), 0.01% Brij35, 10 mmol/L MgCl2 and 1 mmol/L EGTA was prepared by using purified water.
Test substance solution: a solution containing a test compound of 5-fold concentration with respect to the final concentration was prepared by 20-fold diluting a DMSO solution of test compound of each concentration with the reaction buffer solution.
Enzyme solution: a solution containing 400 ng/mL Axl enzyme was prepared by using the reaction buffer solution.
Substrate solution: a solution containing 45 μmmol/L ATP and 500 nmmol/L Fluorescein-Poly GT (Invitrogen) was prepared by using the reaction buffer solution.
Detection solution: a solution containing 20 mM EDTA and 4 nM PY20 (Invitrogen) was prepared by using Dilution B (Invitrogen).
A 10 mmol/L DMSO solution of the test compound was dispensed into a 96-well plate (Nunc), and, furthermore, a 3-fold dilution series was prepared using DMSO. In each well of the 96-well plate for measurement, 5 μL each of the reaction buffer solution containing DMSO was added to a Blank group and a medium group, and 5 μL of the test substance solution was added to the test substance group, respectively. Next, 10 μL/well of the reaction buffer solution was added to the Blank group, and 10 μL/well each of the enzyme solution was added to the medium group and the test compound group, followed by stirring at room temperature for 10 min. After the completion of stirring, 10 μL each of the substrate solution was added into each well, followed by stirring at room temperature with light shielded for one hour. After the completion of reaction, 25 μL each of the detection solution was added to each well, and stood still at room temperature with light shielded for 30 min. After standing sill, fluorescence intensity at 520 nm and 495 nm at the time of irradiation with exciting light of 340 nm was measured by using Analyst GT (Molecular Devices). The phosphorylation of the artificial substrate was quantified by Time-resolved Fluorescence Resonance Energy Transfer (TR-FRET). TR-FRET ratio was calculated by dividing 520 nm fluorescence signal by 495 nm fluorescence signal for each well, and the inhibition rate (%) in the test compound group was calculated based on the following mathematical formula. Inhibition rate (%)=[1−(TR-FRET ratio of test compound group−A)/(B−A)×100 [Math. 1] A: average value of TR-FRET ratios of Blank group B: average value of TR-FRET ratios of medium group
Values of 50% inhibition rate (IC50 values) of the test compound were calculated from the inhibition curve based on the inhibition rate of the test compounds in each concentration.
(In general: Time-resolved FRET reads energy transfer from a long-lived donor to a nearby acceptor.)

A further experiment deals with KDR (Homo sapiens, UniProt P35968). As to the kind of experiment: Evaluation of kinase selectivity (in vitro test), KDR. The class given is biochemical. To be noted: Axl selective inhibitory activity with respect to KDR, ratio of IC50 values. The protocol:
Biological Example 3: Evaluation of Kinase Selectivity (In Vitro Test)
Similar to Biological Example 1, values of 50% inhibition rate (IC50 value) with respect to various kinases (KDR, DDR1, FLT4, and ROS) of the test compound were measured. The Axl selective inhibitory activity of the test compound with respect to kinases, for example, KDR, was calculated based on the above-mentioned ratio of the IC50 values. As the test compound, for the compound of the present invention, the compounds of Examples 5, 5(1), 17(2), and 23(2) were used, and for the comparative compounds, the compound of Example 5 (Comparative compound C) and the compound of Example 92 (Comparative compound D) described in Patent Literature 5, having the following structure, were used.

Some results are limits rather than exact numbers.

Chain of KDR (P35968 20-1356): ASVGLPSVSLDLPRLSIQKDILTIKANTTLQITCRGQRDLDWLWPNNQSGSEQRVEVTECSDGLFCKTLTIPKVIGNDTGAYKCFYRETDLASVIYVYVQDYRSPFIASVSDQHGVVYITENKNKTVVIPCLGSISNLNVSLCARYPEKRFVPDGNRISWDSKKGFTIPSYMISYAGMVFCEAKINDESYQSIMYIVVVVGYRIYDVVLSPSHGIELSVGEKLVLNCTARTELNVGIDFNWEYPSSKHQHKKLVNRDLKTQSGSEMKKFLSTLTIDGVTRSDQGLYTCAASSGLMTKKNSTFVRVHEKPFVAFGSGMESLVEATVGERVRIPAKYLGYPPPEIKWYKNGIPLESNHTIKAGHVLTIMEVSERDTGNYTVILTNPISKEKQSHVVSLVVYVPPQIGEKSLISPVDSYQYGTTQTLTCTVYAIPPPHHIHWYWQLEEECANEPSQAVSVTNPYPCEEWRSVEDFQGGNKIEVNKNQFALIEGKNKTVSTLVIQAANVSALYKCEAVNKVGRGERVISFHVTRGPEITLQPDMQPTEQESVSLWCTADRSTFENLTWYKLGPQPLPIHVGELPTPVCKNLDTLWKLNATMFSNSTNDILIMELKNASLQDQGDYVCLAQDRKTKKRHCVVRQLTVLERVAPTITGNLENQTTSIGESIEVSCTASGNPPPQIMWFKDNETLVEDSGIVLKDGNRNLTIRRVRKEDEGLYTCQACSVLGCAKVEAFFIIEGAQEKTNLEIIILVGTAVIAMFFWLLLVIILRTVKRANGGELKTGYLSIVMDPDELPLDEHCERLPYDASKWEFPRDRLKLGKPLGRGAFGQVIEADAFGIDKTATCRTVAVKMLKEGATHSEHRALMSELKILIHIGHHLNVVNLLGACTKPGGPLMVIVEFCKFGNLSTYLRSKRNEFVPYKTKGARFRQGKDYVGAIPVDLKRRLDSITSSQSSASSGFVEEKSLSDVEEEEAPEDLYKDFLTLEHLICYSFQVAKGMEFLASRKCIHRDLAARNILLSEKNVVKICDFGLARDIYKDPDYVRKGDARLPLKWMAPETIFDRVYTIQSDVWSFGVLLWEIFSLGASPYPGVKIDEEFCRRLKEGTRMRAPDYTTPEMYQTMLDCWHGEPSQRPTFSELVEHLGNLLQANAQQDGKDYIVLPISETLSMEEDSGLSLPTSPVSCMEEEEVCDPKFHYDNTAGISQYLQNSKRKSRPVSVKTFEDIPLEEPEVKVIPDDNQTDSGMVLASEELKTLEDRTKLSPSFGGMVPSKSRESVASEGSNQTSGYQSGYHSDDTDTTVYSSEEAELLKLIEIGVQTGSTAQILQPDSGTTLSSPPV

Turning to `COc1cc2nccc(Oc3ccc(NC(=O)c4cc5c(n(CC(C)(C)C)c4=O)CCCC5=O)nc3)c2cc1OC` [Example 5(6), N-{5-[(6,7-dimethoxy-4-quinolinyl)oxy]-2-pyridinyl}-1-(2,2-dimethylpropyl)-2,5-dioxo-1,2,5,6,7,8-hexahydro-3-quinolinecarboxamide], the GI50 at Ba/F3 Axl turned out to be 7.8 nM. Further, the IC50 against Axl enzyme came to 4.3 nM. `COc1cc2c(Oc3ccc(NC(=O)c4cccc5cccnc45)cc3F)ccnc2cc1OCCCN1CCOCC1` [Comparative compound C, reference compound]: the “KDR [IC50]/Axl [IC50]” value on KDR was “about 0.2 times”.

Regarding `COc1cc2nccc(Oc3ccc(NC(=O)c4cc5ccccc5[nH]c4=O)cc3)c2cc1OC` [Comparative compound B, reference compound], the GI50 on Ba/F3 Axl is > 10000 nM. In addition, the IC50 on Axl enzyme was > 10000 nM. In the case of `COc1cc2c(Oc3ccc(NC(=O)c4ccnn(-c5ccc(F)cc5)c4=O)cn3)ccnc2cc1OCCCN1CCOCC1` [Comparative compound D, reference compound], the “KDR [IC50]/Axl [IC50]” value on KDR is listed as “about 28 times”.

With `COc1cc2nccc(Oc3ccc(NC(=O)c4nn(C)c5ccccc45)cc3F)c2cc1OC` [Comparative compound A, reference compound], the GI50 at Ba/F3 Axl amounted to 620 nM. Further, the half-inhibitory concentration (IC50) at Axl enzyme is > 10000 nM.
